Assay results from publication PMC4770715, “LIM kinase inhibitors disrupt mitotic microtubule organization and impair tumor cell proliferation” (Oncotarget, 2015).

Assays:
Assay in all cases: biochemical
Parameters in all cases: KINOMEscan active-site competition binding, percent of control (100 = no competition)
Details in all cases: competition binding, percent control
[1] = molecular target: PRKX (Homo sapiens, UniProt P51817)
[2] = molecular target: T1, DCAMKL1 (Homo sapiens, UniProt O15075)
T1 construct: gene DCLK1

[3] = molecular target: EGFR (Homo sapiens, UniProt P00533)
[4] = molecular target: ACVR1B (Homo sapiens, UniProt P36896)
[5] = molecular target: KIT(V559D) (Homo sapiens, UniProt P10721, V559D)
[6] = molecular target: T2, ABL1-nonphosphorylated (Homo sapiens, UniProt P00519)
T2 construct: nonphosphorylated

[7] = molecular target: MET (Homo sapiens, UniProt P08581)
[8] = molecular target: FGR (Homo sapiens, UniProt P09769)
[9] = molecular target: T3, PAK7 (Homo sapiens, UniProt Q9P286)
T3 construct: gene PAK5

[10] = molecular target: T4, ASK1 (Homo sapiens, UniProt Q99683)
T4 construct: gene MAP3K5

[11] = molecular target: PIK3CB (Homo sapiens, UniProt P42338)
PIK3CB, sequence (P42338 whole entry): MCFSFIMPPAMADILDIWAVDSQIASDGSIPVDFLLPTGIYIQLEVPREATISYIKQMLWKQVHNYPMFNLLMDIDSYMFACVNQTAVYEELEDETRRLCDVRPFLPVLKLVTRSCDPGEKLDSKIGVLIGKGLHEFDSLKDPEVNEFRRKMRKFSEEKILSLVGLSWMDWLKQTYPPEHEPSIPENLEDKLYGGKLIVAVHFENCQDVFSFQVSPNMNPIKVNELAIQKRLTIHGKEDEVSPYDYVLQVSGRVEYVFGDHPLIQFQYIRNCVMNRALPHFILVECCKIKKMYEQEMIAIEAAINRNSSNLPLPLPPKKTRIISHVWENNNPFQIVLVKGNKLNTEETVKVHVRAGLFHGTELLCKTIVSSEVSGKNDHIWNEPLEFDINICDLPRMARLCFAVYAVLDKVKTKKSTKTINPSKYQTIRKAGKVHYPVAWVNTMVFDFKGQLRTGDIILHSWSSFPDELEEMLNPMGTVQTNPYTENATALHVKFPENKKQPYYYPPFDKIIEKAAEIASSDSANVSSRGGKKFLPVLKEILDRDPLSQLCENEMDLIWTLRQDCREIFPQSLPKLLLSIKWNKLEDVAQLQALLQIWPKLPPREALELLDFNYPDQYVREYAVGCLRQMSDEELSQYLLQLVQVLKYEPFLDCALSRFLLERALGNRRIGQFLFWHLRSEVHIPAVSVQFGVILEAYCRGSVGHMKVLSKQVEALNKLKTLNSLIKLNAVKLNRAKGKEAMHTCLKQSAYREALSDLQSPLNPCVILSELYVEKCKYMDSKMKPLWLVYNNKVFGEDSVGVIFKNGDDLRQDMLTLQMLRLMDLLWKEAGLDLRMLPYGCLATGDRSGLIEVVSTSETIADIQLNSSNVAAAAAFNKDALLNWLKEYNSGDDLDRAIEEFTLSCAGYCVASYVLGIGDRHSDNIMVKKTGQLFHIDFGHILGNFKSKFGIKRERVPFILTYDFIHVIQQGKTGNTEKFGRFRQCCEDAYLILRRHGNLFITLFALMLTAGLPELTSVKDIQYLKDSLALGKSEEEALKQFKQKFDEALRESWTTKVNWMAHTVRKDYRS

[12] = molecular target: PRKCQ (Homo sapiens, UniProt Q04759)
[13] = molecular target: STK16 (Homo sapiens, UniProt O75716)
[14] = molecular target: T5, ABL1(Q252H)-phosphorylated (Homo sapiens, UniProt P00519, Q252H)
T5 construct: phosphorylated

[15] = molecular target: TXK (Homo sapiens, UniProt P42681)
[16] = molecular target: PHKG2 (Homo sapiens, UniProt P15735)
[17] = molecular target: PDGFRA (Homo sapiens, UniProt P16234)
[18] = molecular target: MAPKAPK5 (Homo sapiens, UniProt Q8IW41)
MAPKAPK5, sequence (Q8IW41 whole entry): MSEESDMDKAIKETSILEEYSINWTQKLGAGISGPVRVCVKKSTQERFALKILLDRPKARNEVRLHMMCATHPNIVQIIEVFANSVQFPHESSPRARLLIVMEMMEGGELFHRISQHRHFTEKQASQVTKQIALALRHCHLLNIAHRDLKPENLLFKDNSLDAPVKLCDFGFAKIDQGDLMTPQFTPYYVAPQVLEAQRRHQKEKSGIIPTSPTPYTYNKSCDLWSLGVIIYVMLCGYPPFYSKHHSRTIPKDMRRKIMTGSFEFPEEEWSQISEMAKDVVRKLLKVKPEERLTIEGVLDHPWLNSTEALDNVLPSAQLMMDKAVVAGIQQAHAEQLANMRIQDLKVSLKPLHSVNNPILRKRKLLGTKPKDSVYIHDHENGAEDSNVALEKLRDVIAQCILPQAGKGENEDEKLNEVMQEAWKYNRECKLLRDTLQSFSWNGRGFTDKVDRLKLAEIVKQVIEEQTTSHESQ

[19] = molecular target: T6, YANK2 (Homo sapiens, UniProt Q9NY57)
T6 construct: gene STK32B

[20] = molecular target: T7, DRAK1 (Homo sapiens, UniProt Q9UEE5)
T7 construct: gene STK17A
T7 sequence (Q9UEE5 whole entry): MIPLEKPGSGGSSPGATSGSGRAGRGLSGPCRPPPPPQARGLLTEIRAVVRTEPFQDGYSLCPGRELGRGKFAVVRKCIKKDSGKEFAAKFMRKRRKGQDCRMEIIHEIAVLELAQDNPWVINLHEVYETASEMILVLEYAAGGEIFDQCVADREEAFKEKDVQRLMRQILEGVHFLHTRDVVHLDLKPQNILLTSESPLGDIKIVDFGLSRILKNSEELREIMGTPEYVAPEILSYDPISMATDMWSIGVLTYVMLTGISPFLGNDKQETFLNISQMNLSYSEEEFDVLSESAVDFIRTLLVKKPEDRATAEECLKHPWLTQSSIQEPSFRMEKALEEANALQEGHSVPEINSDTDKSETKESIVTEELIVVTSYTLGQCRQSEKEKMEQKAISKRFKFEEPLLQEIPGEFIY

[21] = molecular target: RET(V804L) (Homo sapiens, UniProt P07949, V804L)
RET(V804L), sequence (P07949 whole entry V804L): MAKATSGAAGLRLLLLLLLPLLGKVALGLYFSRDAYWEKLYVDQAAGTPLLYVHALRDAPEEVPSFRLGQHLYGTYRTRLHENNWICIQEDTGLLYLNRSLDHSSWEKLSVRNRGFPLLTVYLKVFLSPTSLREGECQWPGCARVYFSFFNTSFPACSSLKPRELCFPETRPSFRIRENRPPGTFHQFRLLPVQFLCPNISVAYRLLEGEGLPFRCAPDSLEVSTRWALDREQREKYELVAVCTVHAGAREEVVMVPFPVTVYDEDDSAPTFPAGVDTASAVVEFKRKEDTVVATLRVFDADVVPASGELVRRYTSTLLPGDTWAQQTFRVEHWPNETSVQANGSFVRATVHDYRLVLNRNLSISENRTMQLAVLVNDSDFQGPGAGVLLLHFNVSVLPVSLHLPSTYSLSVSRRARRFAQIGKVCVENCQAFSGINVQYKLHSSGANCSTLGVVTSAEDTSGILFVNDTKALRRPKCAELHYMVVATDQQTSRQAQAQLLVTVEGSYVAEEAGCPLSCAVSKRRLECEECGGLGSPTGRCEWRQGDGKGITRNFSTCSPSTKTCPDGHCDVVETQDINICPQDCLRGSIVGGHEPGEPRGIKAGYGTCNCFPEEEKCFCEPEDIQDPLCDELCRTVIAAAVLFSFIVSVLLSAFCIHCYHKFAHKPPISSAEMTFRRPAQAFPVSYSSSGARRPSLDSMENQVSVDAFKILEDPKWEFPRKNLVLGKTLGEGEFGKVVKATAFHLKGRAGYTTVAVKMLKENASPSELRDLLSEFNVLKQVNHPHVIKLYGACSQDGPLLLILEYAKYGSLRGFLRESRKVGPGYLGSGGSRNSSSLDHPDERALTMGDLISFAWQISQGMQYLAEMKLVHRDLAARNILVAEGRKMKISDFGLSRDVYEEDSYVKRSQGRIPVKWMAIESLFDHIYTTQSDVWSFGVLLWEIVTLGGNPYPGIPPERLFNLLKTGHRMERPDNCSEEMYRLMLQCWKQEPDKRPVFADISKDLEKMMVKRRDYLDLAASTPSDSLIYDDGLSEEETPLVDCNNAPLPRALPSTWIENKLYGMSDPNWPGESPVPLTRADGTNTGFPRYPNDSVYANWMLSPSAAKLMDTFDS

[22] = molecular target: CDKL2 (Homo sapiens, UniProt Q92772)
[23] = molecular target: MAP3K1 (Homo sapiens, UniProt Q13233)
MAP3K1, sequence (Q13233 whole entry): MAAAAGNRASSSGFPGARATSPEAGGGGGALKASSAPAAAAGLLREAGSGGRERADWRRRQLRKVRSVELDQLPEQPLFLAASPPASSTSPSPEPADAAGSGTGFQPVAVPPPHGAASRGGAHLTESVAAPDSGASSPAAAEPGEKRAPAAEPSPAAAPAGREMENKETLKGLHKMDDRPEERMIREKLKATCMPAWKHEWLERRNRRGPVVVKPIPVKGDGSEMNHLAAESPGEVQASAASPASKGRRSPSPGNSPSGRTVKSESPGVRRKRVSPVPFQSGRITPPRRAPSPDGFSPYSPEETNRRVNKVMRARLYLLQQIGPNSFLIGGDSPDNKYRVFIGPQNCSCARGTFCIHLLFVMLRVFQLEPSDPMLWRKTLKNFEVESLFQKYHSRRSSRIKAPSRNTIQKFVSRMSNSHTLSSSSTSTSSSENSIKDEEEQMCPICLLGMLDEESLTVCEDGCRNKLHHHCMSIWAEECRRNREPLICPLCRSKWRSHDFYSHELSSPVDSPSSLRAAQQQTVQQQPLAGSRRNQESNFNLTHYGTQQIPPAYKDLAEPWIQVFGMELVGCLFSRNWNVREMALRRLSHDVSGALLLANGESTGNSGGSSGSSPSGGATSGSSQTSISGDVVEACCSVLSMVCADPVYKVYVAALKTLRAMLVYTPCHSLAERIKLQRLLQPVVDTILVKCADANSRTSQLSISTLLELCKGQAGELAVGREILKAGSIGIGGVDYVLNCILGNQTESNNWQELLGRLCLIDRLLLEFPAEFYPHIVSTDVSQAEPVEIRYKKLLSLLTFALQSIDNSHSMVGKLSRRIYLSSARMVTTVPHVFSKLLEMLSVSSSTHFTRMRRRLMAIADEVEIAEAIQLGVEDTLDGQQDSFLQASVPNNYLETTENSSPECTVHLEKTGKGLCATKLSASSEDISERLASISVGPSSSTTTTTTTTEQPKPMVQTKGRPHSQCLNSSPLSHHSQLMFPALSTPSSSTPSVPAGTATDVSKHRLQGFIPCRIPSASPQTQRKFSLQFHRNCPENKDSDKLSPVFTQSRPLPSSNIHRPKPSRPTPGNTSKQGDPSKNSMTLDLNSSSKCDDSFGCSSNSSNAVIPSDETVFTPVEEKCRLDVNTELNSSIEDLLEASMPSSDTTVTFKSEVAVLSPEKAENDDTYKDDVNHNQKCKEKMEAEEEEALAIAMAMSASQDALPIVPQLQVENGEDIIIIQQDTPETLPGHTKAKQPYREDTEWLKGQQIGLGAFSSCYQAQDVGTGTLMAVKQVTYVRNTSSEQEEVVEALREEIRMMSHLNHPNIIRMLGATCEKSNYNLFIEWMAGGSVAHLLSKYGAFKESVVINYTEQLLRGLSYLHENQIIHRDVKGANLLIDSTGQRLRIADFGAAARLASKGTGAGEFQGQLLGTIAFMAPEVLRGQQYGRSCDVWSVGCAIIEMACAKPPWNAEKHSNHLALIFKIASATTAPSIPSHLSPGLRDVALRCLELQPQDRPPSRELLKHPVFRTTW

PRKX, sequence (P51817 whole entry): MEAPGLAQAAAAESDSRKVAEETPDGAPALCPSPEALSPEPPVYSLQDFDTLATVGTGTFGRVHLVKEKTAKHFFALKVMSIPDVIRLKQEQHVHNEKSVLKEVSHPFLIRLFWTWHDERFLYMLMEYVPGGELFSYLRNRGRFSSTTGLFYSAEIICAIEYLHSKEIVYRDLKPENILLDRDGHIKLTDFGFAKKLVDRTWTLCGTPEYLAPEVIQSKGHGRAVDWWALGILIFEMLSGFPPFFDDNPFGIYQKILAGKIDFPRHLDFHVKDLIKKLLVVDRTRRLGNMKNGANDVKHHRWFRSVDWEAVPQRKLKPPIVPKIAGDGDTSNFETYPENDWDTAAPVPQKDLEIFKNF

COc1ccc(-c2cnccc2-c2cnc(NC(=O)C(C)C)s2)c(C(F)(F)F)c1 [CRT0105446, N-{5-[3-(4-Methoxy-2-trifluoromethyl-phenyl)-pyridin-4-yl]-hiazol-2-yl}-isobutyramide]
remaining binding at 10 µM [1]: 100% | remaining binding at 10 µM [2]: 46% | remaining binding at 10 µM [3]: 100% | remaining binding at 10 µM [4]: 82% | remaining binding at 10 µM [5]: 39% | remaining binding at 10 µM [6]: 82% | remaining binding at 10 µM [7]: 80% | remaining binding at 10 µM [8]: 93% | remaining binding at 10 µM [9]: 95% | remaining binding at 10 µM [10]: 100% | remaining binding at 10 µM [11]: 95% | remaining binding at 10 µM [12]: 74% | remaining binding at 10 µM [13]: 5% | remaining binding at 10 µM [14]: 81% | remaining binding at 10 µM [15]: 100% | remaining binding at 10 µM [16]: 92% | remaining binding at 10 µM [17]: 66% | remaining binding at 10 µM [18]: 95% | remaining binding at 10 µM [19]: 100% | remaining binding at 10 µM [20]: 81% | remaining binding at 10 µM [21]: 99% | remaining binding at 10 µM [22]: 2.2% | remaining binding at 10 µM [23]: 88%

Cc1ccc(-c2cnccc2-c2cnc(Nc3ccc(O)cc3)s2)c(Cl)c1 [CRT0105950, 4-{5-[3-(2-Chloro-4-methyl-phenyl)-pyridin-4-yl]-thiazol-2-ylamino}-phenol]
remaining binding at 10 µM [1]: 100% | remaining binding at 10 µM [2]: 75% | remaining binding at 10 µM [3]: 53% | remaining binding at 10 µM [4]: 76% | remaining binding at 10 µM [5]: 0.75% | remaining binding at 10 µM [6]: 43% | remaining binding at 10 µM [7]: 16% | remaining binding at 10 µM [8]: 32% | remaining binding at 10 µM [9]: 93% | remaining binding at 10 µM [10]: 100% | remaining binding at 10 µM [11]: 80% | remaining binding at 10 µM [12]: 13% | remaining binding at 10 µM [13]: 8.7% | remaining binding at 10 µM [14]: 74% | remaining binding at 10 µM [15]: 38% | remaining binding at 10 µM [16]: 52% | remaining binding at 10 µM [17]: 48% | remaining binding at 10 µM [18]: 97% | remaining binding at 10 µM [19]: 100% | remaining binding at 10 µM [20]: 100% | remaining binding at 10 µM [21]: 5.8% | remaining binding at 10 µM [22]: 0.6% | remaining binding at 10 µM [23]: 71%
